In US20040086901A1, “Database for analyzing gene function and method of analyzing gene function by dspa” (priority 2000, published 2004):

How the values were obtained:
Type in all cases: cell-based, mouse
[1] = system: NIH3T3 cells overexpressing HSP4O; test: MTT cell viability, HSP4O overexpressing cells vs parental line; conditions: HSP4O high-expressing cells / parental cell line, 3 to 4 days
Procedure: (§1) With regard to the function-known genes, the genes shown in the left column of Table 2 were used. With regard to the drugs, those shown in Table 1 were dissolved in DMSO to an extent of 100-fold of the maximum concentration for the search of the drugs and used. With regard to the cells, incubated NIH3T3 or ras-NIH3T3 cells were used.
(§2) Full-length cDNA of each function-known genes was incorporated into an expression vector (pRc-CMV, etc.) and transfected into NIH3T3 cells by a common method. Transformed cells were isolated using the resistance to G-418 as an index and the expression of the transfected gene in each cell was investigated by Western blotting method to select a highly expressing line.
(§3) Cell viabilities were measured according to the following procedures.
(§4) 1) From the 2nd to the 11th rows of a 96-well plate were filled with DMEM (50 μl). The 12th row was filled with 100 μl of DMEM.
(§5) 2) The 1st row was filled with 98 μl of DMEM.
(§6) 3) Drugs (2 μl each) were added into the 1st row.
(§7) 4) Continuous double-dilution was conducted from the 1st to the 9th rows. Fifty μl were taken out from the 9th row and discarded. The plate was preserved in a CO2 incubator.
(§8) 5) Cells (each high-expressing cells and the parental cell line) were detached from the medium using a trypsin solution, suspended in 10% CS-DMEM and transferred to a test tube and cell numbers (cell/ml) were counted.
(§9) 6) The cells were diluted to a concentration of 1×10^5 cells/ml, and 50 μl of the cell suspension were added to the 1st to the 11th rows of the plate followed by gently stirring.
(§10) 7) The plate was transferred to the CO2 incubator and incubated for 3 to 4 days.
(§11) 8) MTT (5 mg/ml in PBS) (10 μl) was added to the 1st to the 12th rows of the plate and incubated in the CO2 incubator at 37° C. for 4 hours.
(§12) 9) A reaction stop solution (0.04N HCl in isopropanol) (150 μl) was added followed by mixing well and being allowed to stand at room temperature for about 2 hours.
(§13) 10) Coloration of formazan which was a metabolite of the MTT dye was measured using a microplate reader. The measurement wavelength was 574 nm and the reference wavelength was 655 nm. The 10th and the 11th rows of the plate were 100% controls and the 12th row was a 0% control.
(§14) As an index for the sensitivity of highly gene-expressing cells and the parental cell line to various drugs, each of the IC40 values thereof was specified and ratios of the IC40 values were calculated. FIG. 2 and FIG. 3 are the examples where ratios of IC40 values were calculated from a curve showing the dependency on the concentration of the chemical versus the viability. After that, logarithmic values of ratios of IC40 values were calculated from each gene.

[2] = system: NIH3T3 cells overexpressing TK; test: MTT cell viability, TK overexpressing cells vs parental line; conditions: TK high-expressing cells / parental cell line, 3 to 4 days
Procedure: as §1, §2, §3, §4, §5, §6, §7, §8, §9, §10, §11, §12, §13, §14

[3] = system: NIH3T3 cells overexpressing PDGF-R; test: MTT cell viability, PDGF-R overexpressing cells vs parental line; conditions: PDGF-R high-expressing cells / parental cell line, 3 to 4 days
Procedure: as §1, §2, §3, §4, §5, §6, §7, §8, §9, §10, §11, §12, §13, §14

[4] = system: NIH3T3 cells overexpressing C/EBPa; test: MTT cell viability, C/EBPa overexpressing cells vs parental line; conditions: C/EBPa high-expressing cells / parental cell line, 3 to 4 days
Procedure: as §1, §2, §3, §4, §5, §6, §7, §8, §9, §10, §11, §12, §13
(§15) As an index for the sensitivity of highly gene-expressing cells and the parental cell line to various drugs, each of the IC40 values thereof was specified and ratios of the IC40 values were calculated. […] After that, logarithmic values of ratios of IC40 values were calculated from each gene.

[5] = system: NIH3T3 cells overexpressing PKCepsilon-KN; test: MTT cell viability, PKCepsilon-KN overexpressing cells vs parental line; conditions: 3 to 4 days
Procedure: as §1, §2, §3, §4, §5, §6, §7, §8, §9, §10, §11, §12, §13, §15

[6] = system: NIH3T3 cells overexpressing HNF1; test: MTT cell viability, HNF1 overexpressing cells vs parental line; conditions: HNF1 high-expressing cells / parental cell line, 3 to 4 days
Procedure: as §1, §2, §3, §4, §5, §6, §7, §8, §9, §10, §11, §12, §13, §15

[7] = system: NIH3T3 cells overexpressing cystatin alpha; test: MTT cell viability, cystatin alpha overexpressing cells vs parental line; conditions: cystatin alpha high-expressing cells / parental cell line, 3 to 4 days
Procedure: as §1, §2, §3, §4, §5, §6, §7, §8, §9, §10, §11, §12, §13, §14

[8] = system: NIH3T3 cells overexpressing PKCalpha-KN; test: MTT cell viability, PKCalpha-KN overexpressing cells vs parental line; conditions: 3 to 4 days
Procedure: as §1, §2, §3, §4, §5, §6, §7, §8, §9, §10, §11, §12, §13, §15

[9] = system: NIH3T3 cells overexpressing JNK-DN; test: MTT cell viability, JNK-DN overexpressing cells vs parental line; conditions: JNK-DN high-expressing cells / parental cell line, 3 to 4 days
Procedure: as §1, §2, §3, §4, §5, §6, §7, §8, §9, §10, §11, §12, §13, §14

[10] = system: NIH3T3 cells overexpressing v-src; test: MTT cell viability, v-src overexpressing cells vs parental line; conditions: v-src high-expressing cells / parental cell line, 3 to 4 days
Procedure: as §1, §2, §3, §4, §5, §6, §7, §8, §9, §10, §11, §12, §13, §14

[11] = system: NIH3T3 cells overexpressing C/EBPb; test: MTT cell viability, C/EBPb overexpressing cells vs parental line; conditions: C/EBPb high-expressing cells / parental cell line, 3 to 4 days
Procedure: as §1, §2, §3, §4, §5, §6, §7, §8, §9, §10, §11, §12, §13, §15

[12] = system: NIH3T3 cells overexpressing m-calpain; test: MTT cell viability, m-calpain overexpressing cells vs parental line; conditions: m-calpain high-expressing cells / parental cell line, 3 to 4 days
Procedure: as §1, §2, §3, §4, §5, §6, §7, §8, §9, §10, §11, §12, §13, §15

[13] = system: NIH3T3 cells overexpressing coup; test: MTT cell viability, coup overexpressing cells vs parental line; conditions: coup high-expressing cells / parental cell line, 3 to 4 days
Procedure: as §1, §2, §3, §4, §5, §6, §7, §8, §9, §10, §11, §12, §13, §14

[14] = system: NIH3T3 cells overexpressing p38-DN; test: MTT cell viability, p38-DN overexpressing cells vs parental line; conditions: p38-DN high-expressing cells / parental cell line, 3 to 4 days
Procedure: as §1, §2, §3, §4, §5, §6, §7, §8, §9, §10, §11, §12, §13, §15

[15] = system: NIH3T3 cells overexpressing CP-antisense; test: MTT cell viability, CP-antisense cells vs parental line; conditions: 3 to 4 days
Procedure: as §1, §2, §3, §4, §5, §6, §7, §8, §9, §10, §11, §12, §13, §14

[16] = system: NIH3T3 cells overexpressing Ha-ras; test: MTT cell viability, drug sensitivity of Ha-ras overexpressing cells vs parental line; conditions: Ha-ras high-expressing cells / parental cell line, 3 to 4 days
Procedure: as §1, §2, §3, §4, §5, §6, §7, §8, §9, §10, §11, §12, §13, §15

[17] = system: NIH3T3 cells overexpressing DAN; test: MTT cell viability, DAN overexpressing cells vs parental line; conditions: DAN high-expressing cells / parental cell line, 3 to 4 days
Procedure: as §1, §2, §3, §4, §5, §6, §7, §8, §9, §10, §11, §12, §13, §14

[18] = system: NIH3T3 cells overexpressing PDGF-R-Del; test: MTT cell viability, PDGF-R-Del overexpressing cells vs parental line; conditions: PDGF-R-Del high-expressing cells / parental cell line, 3 to 4 days
Procedure: as §1, §2, §3, §4, §5, §6, §7, §8, §9, §10, §11, §12, §13, §14

[19] = system: NIH3T3 cells overexpressing RhoA-DN; test: MTT cell viability, RhoA-DN overexpressing cells vs parental line; conditions: RhoA-DN high-expressing cells / parental cell line, 3 to 4 days
Procedure: as §1, §2, §3, §4, §5, §6, §7, §8, §9, §10, §11, §12, §13, §15

[20] = PKCepsilon-KN (first of two lines) high-expressing cells / parental cell line
[21] = PKCepsilon-KN (second of two lines) high-expressing cells / parental cell line
[22] = PKCalpha-KN (first of two lines) high-expressing cells / parental cell line
[23] = PKCalpha-KN (second of two lines) high-expressing cells / parental cell line

Compound | logarithmic value of ratio of IC40 values [1] | logarithmic value of ratio of IC40 values [2] | logarithmic value of ratio of IC40 values [3] | logarithmic value of ratio of IC40 values [4] | logarithmic value of ratio of IC40 values [5, 20] | logarithmic value of ratio of IC40 values [5, 21] | logarithmic value of ratio of IC40 values [6] | logarithmic value of ratio of IC40 values [7] | logarithmic value of ratio of IC40 values [8, 22] | logarithmic value of ratio of IC40 values [8, 23] | logarithmic value of ratio of IC40 values [9] | logarithmic value of ratio of IC40 values [10] | logarithmic value of ratio of IC40 values [11] | logarithmic value of ratio of IC40 values [12] | logarithmic value of ratio of IC40 values [13] | logarithmic value of ratio of IC40 values [14] | logarithmic value of ratio of IC40 values [15] | logarithmic value of ratio of IC40 values [16] | logarithmic value of ratio of IC40 values [17] | logarithmic value of ratio of IC40 values [18] | other results
C=C[C@]1(C)CC[C@@H](C(=C)C)C[C@H]1C(=C)C [b-elemene, β-elemene] | 0.02 | −0.14 | 0.00 | 0.00 | 0.00 | −0.23 | 0.02 | 0.08 | 0.07 | −0.07 | −0.04 | −0.35 | 0.50 | 0.00 | 0.52 | 0.05 | 0.00 | −0.26 | 0.04 | 0.16 | –
CC(C)(C)C(=O)Oc1ccc(S(=O)(=O)Nc2ccccc2C(=O)NCC(=O)O)cc1 [compound 5046] | −0.15 | −0.24 | 0.36 | – | −0.21 | – | 0.05 | – | 0.10 | −0.05 | −0.09 | 0.51 | 0.17 | −0.04 | −0.04 | −0.04 | −0.06 | – | 0.26 | −0.07 | –
sodium vanadate | −0.03 | 0.16 | 0.22 | −0.02 | 0.09 | 0.18 | 0.046 | 0.08 | 0.23 | 0.08 | −0.17 | 0.00 | – | −0.10 | −0.10 | −0.04 | 0.04 | −0.33 | 0.30 | 0.00 | logarithmic value of ratio of IC40 values [19]: −0.12
CN(C)CCCn1cc(C2=C(c3c[nH]c4ccccc34)C(=O)NC2=O)c2ccccc21 [GF109203X] | −0.07 | 0.00 | 0.00 | 0.00 | −0.17 | 0.32 | 0.345 | 0.60 | 0.22 | 0.62 | 0.58 | −0.29 | – | 0.35 | 0.46 | 0.58 | 0.00 | −0.39 | 0.65 | 0.91 | –
Nc1nc2nc[nH]c2c(=S)[nH]1 [6-TG, 6-thioguanine] | 0.50 | −0.17 | 0.22 | 0.00 | 0.00 | 0.00 | 0.46 | 0.60 | 0.26 | 0.38 | 0.00 | 0.00 | – | 0.29 | 0.45 | – | 0.14 | −0.19 | 0.64 | 0.51 | logarithmic value of ratio of IC40 values [19]: 0.41
